According to US10376520B2, “Methods for the treatment of cardiovascular disorders” (Galapagos NV, priority 2015, dated 2019):

Key:
RA patients [1] = assay: [HDL] determination, Study 4 (RA patients, 4 weeks, add-on to MTX); type: in vivo, human
Description: (§1) Randomized, double-blind, placebo-controlled, multicenter, phase II study of Compound 1 (dosed as a [Compound 1:HCl:3H2O]) to compare four dose regimens versus placebo, in combination with methotrexate, administered for 4 weeks in the treatment of subjects with active rheumatoid arthritis who have an inadequate response to methotrexate alone.
(§2) Randomized double-blind, placebo-controlled add on study in subjects with active RA who have an inadequate response to MTX monotherapy, in combination with methotrexate, administered for 4 weeks in the treatment of subjects with active rheumatoid arthritis who have an inadequate response to methotrexate alone.
(§3) 90 subjects randomized to one of 4 dose regimens of Compound 1 (dosed as a [Compound 1:HCl:3H2O]) or placebo, on top of their stable dose of MTX. Thus, each of the 4 different doses of Compound 1 (dosed as a [Compound 1:HCl:3H2O]) and placebo groups has 18 subjects.
(§4) Compound 1 (dosed as a [Compound 1:HCl:3H2O]) capsules administered orally in 30 mg, 75 mg, 150 mg, or 300 mg doses per day for 4 weeks.
This assay relies on a homogeneous enzymatic colorimetric test. In the presence of magnesium ions, dextran sulfate selectively forms water-soluble complexes with LDL, VLDL and chylomicrons which are resistant to PEG-modified enzymes.
The cholesterol concentration of [HDL]-cholesterol is determined enzymatically by cholesterol esterase and cholesterol oxidase coupled with PEG to the amino groups (approx. 40%).
In the presence of peroxidase, the hydrogen peroxide generated reacts with 4-amino-antipyrine and Sodium N-(2-hydroxy-3-sulfopropyl)-3,5-dimethoxyaniline (HSDA) to form a purple-blue dye. The color intensity of this dye is directly proportional to the cholesterol concentration and is measured photometrically.
Human serum and plasma samples [HDL] determination was done on a Roche/Hitachi Cobas c 701/702 system which automatically calculate the analyte concentration of each sample. Samples containing precipitates are centrifuged before performing the assay.

RA patients [2] = assay: LDL determination, Study 4 (RA patients, 4 weeks, add-on to MTX); type: in vivo, human; details: for [LDL] levels: Study 4
Description: as §1, §2, §3, §4
The determination of [LDL]-cholesterol is made using an automated method taking advantage of the selective micellary solubilization of [LDL]-cholesterol by a nonionic detergent and the interaction of a sugar compound and lipoproteins (VLDL and chylomicrons).
When a detergent is included in the enzymatic method for cholesterol determination (cholesterol esterase, cholesterol oxidase coupling reaction), the relative reactivities of cholesterol in the lipoprotein fractions increase in this order: [HDL]<chylomicrons <VLDL <[LDL]. In the presence of Mg^2+, a sugar compound markedly reduces the enzymatic reaction of the cholesterol measurement in VLDL and chylomicrons. The combination of a sugar compound with detergent enables the selective determination of [LDL]-cholesterol in serum. (Friedewald et al., 1972; Rifai et al., 1992)
Homogeneous enzymatic colorimetric assay.
In the presence of peroxidase, the hydrogen peroxide generated reacts with 4-aminoantipyrine and Sodium N-(2-hydroxy-3-sulfopropyl)-3,5-dimethoxyaniline (HSDA) to form a purple-blue dye.
The color intensity of this dye is directly proportional to the cholesterol concentration and is measured photometrically.
Human serum and plasma samples [LDL] determination was done on a Roche/Hitachi Cobas c 701/702 system which automatically calculate the analyte concentration of each sample. Samples containing precipitates are centrifuged before performing the assay.

What does the source list for `O=C(Nc1nc2cccc(-c3ccc(CN4CCS(=O)(=O)CC4)cc3)n2n1)C1CC1` [Compound 1, cyclopropanecarboxylic acid {5-[4-(1,1-dioxo-thiomorpholin-4-ylmethyl)-phenyl]-[1,2,4]triazolo[1,5-a]pyridin-2yl}-amide]?
[HDL] levels (RA patients [1]; 30 mg q.d., Baseline): 1.40 mmol/L; [HDL] levels (RA patients [1]; 30 mg q.d., week 1): 1.44 mmol/L; [HDL] levels (RA patients [1]; 30 mg q.d., week 2): 1.43 mmol/L; [HDL] levels (RA patients [1]; 30 mg q.d., week 3): 1.38 mmol/L; [HDL] levels (RA patients [1]; 30 mg q.d., week 4): 1.43 mmol/L; [HDL] % Mean % variation vs baseline after 4 weeks (RA patients [1]; 30 mg qd): 4%; [HDL] levels (RA patients [1]; 75 mg q.d., Baseline): 1.46 mmol/L; [HDL] levels (RA patients [1]; 75 mg q.d., week 1): 1.46 mmol/L; [HDL] levels (RA patients [1]; 75 mg q.d., week 2): 1.50 mmol/L; [HDL] levels (RA patients [1]; 75 mg q.d., week 3): 1.56 mmol/L; [HDL] levels (RA patients [1]; 75 mg q.d., week 4): 1.57 mmol/L; [HDL] % Mean % variation vs baseline after 4 weeks (RA patients [1]; 75 mg qd): 11%; [HDL] levels (RA patients [1]; 150 mg q.d., Baseline): 1.46 mmol/L; [HDL] levels (RA patients [1]; 150 mg q.d., week 1): 1.45 mmol/L; [HDL] levels (RA patients [1]; 150 mg q.d., week 2): 1.47 mmol/L; [HDL] levels (RA patients [1]; 150 mg q.d., week 3): 1.55 mmol/L; [HDL] levels (RA patients [1]; 150 mg q.d., week 4): 1.53 mmol/L; [HDL] % Mean % variation vs baseline after 4 weeks (RA patients [1]; 150 mg qd): 4%; [HDL] levels (RA patients [1]; 300 mg q.d., Baseline): 1.36 mmol/L; [HDL] levels (RA patients [1]; 300 mg q.d., week 1): 1.55 mmol/L; [HDL] levels (RA patients [1]; 300 mg q.d., week 2): 1.73 mmol/L; [HDL] levels (RA patients [1]; 300 mg q.d., week 3): 1.75 mmol/L; [HDL] levels (RA patients [1]; 300 mg q.d., week 4): 1.84 mmol/L; [HDL] % Mean % variation vs baseline after 4 weeks (RA patients [1]; 300 mg qd): 38%; [LDL] % Mean % variation vs baseline after 4 weeks (RA patients [2]; 30 mg qd): 7%; [LDL] % Mean % variation vs baseline after 4 weeks (RA patients [2]; 75 mg qd): 7%; [LDL] % Mean % variation vs baseline after 4 weeks (RA patients [2]; 150 mg qd): 1%; [LDL] % Mean % variation vs baseline after 4 weeks (RA patients [2]; 300 mg qd): 13%; [LDL] levels (RA patients [2]; 30 mg q.d., baseline): 3.34 mmol/L; [LDL] levels (RA patients [2]; 30 mg q.d., week 1): 3.40 mmol/L; [LDL] levels (RA patients [2]; 30 mg q.d., week 2): 3.35 mmol/L; [LDL] levels (RA patients [2]; 30 mg q.d., week 3): 3.41 mmol/L; [LDL] levels (RA patients [2]; 30 mg q.d., week 4): 3.60 mmol/L; [LDL] levels (RA patients [2]; 75 mg q.d., baseline): 3.22 mmol/L; [LDL] levels (RA patients [2]; 75 mg q.d., week 1): 3.25 mmol/L; [LDL] levels (RA patients [2]; 75 mg q.d., week 2): 3.17 mmol/L; [LDL] levels (RA patients [2]; 75 mg q.d., week 3): 3.14 mmol/L; [LDL] levels (RA patients [2]; 75 mg q.d., week 4): 3.36 mmol/L; [LDL] levels (RA patients [2]; 150 mg q.d., baseline): 3.01 mmol/L; [LDL] levels (RA patients [2]; 150 mg q.d., week 1): 3.18 mmol/L; [LDL] levels (RA patients [2]; 150 mg q.d., week 2): 2.95 mmol/L; [LDL] levels (RA patients [2]; 150 mg q.d., week 3): 2.96 mmol/L; [LDL] levels (RA patients [2]; 150 mg q.d., week 4): 3.06 mmol/L; [LDL] levels (RA patients [2]; 300 mg q.d., baseline): 2.82 mmol/L; [LDL] levels (RA patients [2]; 300 mg q.d., week 1): 3.19 mmol/L; [LDL] levels (RA patients [2]; 300 mg q.d., week 2): 3.11 mmol/L; [LDL] levels (RA patients [2]; 300 mg q.d., week 3): 3.18 mmol/L; [LDL] levels (RA patients [2]; 300 mg q.d., week 4): 3.18 mmol/L
